Earlier results in US20210106592A1, “METHODS AND COMPOSITIONS FOR THE TREATMENT OF TRAUMATIC BRAIN INJURY (TBI) AND RELATED DISORDERS” (priority 2017, published 2021).

Columns and labels:
[1] = target: noradrenaline reuptake (Homo sapiens, UniProt P23975)
[2] = tested on: generalized anxiety disorders; details: patients with generalized anxiety disorders; versus placebo and alprazolam
[3] = target: serotonin (5-HT) reuptake (Homo sapiens, UniProt P31645)
[4] = tested on: sigma; details: recent basic research
[5] = tested on: cholinergic receptors; details: in vitro; last in the decreasing order H1, H2 > 5-HT2 > D2, D1 > a1 > cholinergic

serotonin (5-HT) reuptake, sequence (P31645 whole entry): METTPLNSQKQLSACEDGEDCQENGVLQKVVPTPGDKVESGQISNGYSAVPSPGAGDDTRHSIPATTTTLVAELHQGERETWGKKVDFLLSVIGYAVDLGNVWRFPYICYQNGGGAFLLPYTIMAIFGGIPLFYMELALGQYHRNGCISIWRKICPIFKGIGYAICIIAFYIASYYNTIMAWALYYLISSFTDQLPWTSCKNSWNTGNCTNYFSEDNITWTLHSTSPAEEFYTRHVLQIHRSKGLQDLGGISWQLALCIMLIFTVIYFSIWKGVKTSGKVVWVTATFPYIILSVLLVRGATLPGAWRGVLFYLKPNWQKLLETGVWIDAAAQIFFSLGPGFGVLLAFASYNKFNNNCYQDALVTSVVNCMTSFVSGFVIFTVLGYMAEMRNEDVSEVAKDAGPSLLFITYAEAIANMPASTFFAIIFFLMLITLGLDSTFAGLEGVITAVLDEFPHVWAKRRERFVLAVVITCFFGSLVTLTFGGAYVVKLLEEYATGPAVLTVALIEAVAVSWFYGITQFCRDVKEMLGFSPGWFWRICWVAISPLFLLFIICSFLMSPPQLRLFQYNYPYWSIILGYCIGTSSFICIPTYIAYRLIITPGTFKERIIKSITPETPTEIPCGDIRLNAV
noradrenaline reuptake, sequence (P23975 whole entry): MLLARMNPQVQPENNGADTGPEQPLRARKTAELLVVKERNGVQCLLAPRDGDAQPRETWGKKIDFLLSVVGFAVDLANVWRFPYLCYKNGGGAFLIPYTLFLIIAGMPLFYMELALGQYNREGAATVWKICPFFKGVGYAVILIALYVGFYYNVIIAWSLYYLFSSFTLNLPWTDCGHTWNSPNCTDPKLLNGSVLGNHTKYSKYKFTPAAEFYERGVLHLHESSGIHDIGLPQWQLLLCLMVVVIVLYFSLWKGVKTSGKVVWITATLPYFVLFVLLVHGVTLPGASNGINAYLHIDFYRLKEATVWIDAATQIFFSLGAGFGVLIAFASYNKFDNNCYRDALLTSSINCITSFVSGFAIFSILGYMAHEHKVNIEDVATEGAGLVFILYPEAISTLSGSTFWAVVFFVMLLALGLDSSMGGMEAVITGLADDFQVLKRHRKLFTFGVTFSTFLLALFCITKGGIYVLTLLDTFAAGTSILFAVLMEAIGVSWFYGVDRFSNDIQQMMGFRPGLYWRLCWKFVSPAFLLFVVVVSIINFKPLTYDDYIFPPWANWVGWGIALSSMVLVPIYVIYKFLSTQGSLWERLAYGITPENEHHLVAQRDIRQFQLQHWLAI

Cl.Cl.OCCN1CCN(CCCN2c3ccccc3C=Cc3ccccc32)CC1 [opipramol, 4-[3-(5H-dibenz[b,f]-azepine-5-yl)-propyl]-1-piperazine-ethanol dihydrochloride]
reuptake inhibiting properties for noradrenaline [1]: without reuptake inhibiting properties | anxiolytic efficacy [2]: superiority over placebo and similar efficacy to alprazolam | reuptake inhibiting properties for serotonin (5-HT) [3]: without reuptake inhibiting properties | sigma ligand strength [4]: strong sigma ligand | blockade of cholinergic receptors [5]: very weakly
